Measurements as given in US10457710B2, “Antimicrobial peptides, their variants and uses” (priority 2015, dated 2019).
Where a SMILES comes first, the peptide text is derived from it. [ ]: non-standard residue; d: D form.

Assays:
Format in all cases: cell-based
[1] = tested on: Candida albicans; assay: MIC, clinical yeast strains; conditions: D-form peptide, concentrations tested 0.125 to 128 μg/ml
How it was run: (§1)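 MIC = lowest peptide concentration without visual growth after 20–24 h at 37° C. Range 0.125–128 μg/ml, inoculum 5.0×10^5 cfu/ml, microdilution format. Antifungal tests used potato dextrose broth; bacterial tests used MH broth.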

[2] = tested on: C. glabrata; assay: MIC, clinical yeast strains; conditions: D-form peptide, concentrations tested 0.125 to 128 μg/ml
How it was run: as §1

[3] = tested on: C. parapsilosis; assay: MIC, clinical yeast strains; conditions: D-form peptide, concentrations tested 0.125 to 128 μg/ml
How it was run: as §1

[4] = tested on: C. quillermondiae; assay: MIC, clinical yeast strains; conditions: clinical yeast strain 1; D-form peptide; concentrations tested 0.125 to 128 μg/ml
How it was run: as §1

[5] = tested on: clinical strains of S. aureus; assay: MIC, microdilution, clinical strains; conditions: 0.02% BSA, 0.2% acetic acid
How it was run: (§2)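 Overnight MH agar colonies were suspended in MH broth to 5.0×10^5 cfu/ml, mixed with serial peptide dilutions (0.125–128 μg/ml) and incubated at 37° C for 20 to 24 hours. Yeast MICs were run the same way in potato dextrose broth, and wells were scored visually.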

[6] = tested on: clinical strains of Proteus mirabilis; assay: MIC, microdilution, clinical strains; conditions: 0.02% BSA, 0.2% acetic acid
How it was run: as §2

[7] = tested on: clinical strains of S. pneumoniae; assay: MIC, microdilution, clinical strains; conditions: 0.02% BSA, 0.2% acetic acid
How it was run: as §2

[8] = tested on: clinical strains of K. pneumoniae; assay: MIC, microdilution, clinical strains; conditions: 0.02% BSA, 0.2% acetic acid
How it was run: as §2

[9] = tested on: clinical strains of Serratia marcescens; assay: MIC, microdilution, clinical strains; conditions: 0.02% BSA, 0.2% acetic acid
How it was run: as §2

[10] = tested on: clinical strains of P. aeruginosa; assay: MIC, microdilution, clinical strains; conditions: 0.02% BSA, 0.2% acetic acid
How it was run: as §2

[11] = tested on: clinical strains of E. cloacae; assay: MIC, microdilution, clinical strains; conditions: 0.02% BSA, 0.2% acetic acid
How it was run: as §2

[12] = tested on: clinical strains of E. coli; assay: MIC, microdilution, clinical strains; conditions: microdilution, Muller Hinton broth-cation adjusted, 0.02% BSA, 0.2% acetic acid
How it was run: as §2

[13] = tested on: clinical strains of A. johnsonii; assay: MIC, microdilution, clinical strains; set-up: unit: μg/ml; conditions: Acinetobacter johnsonii strain 1, Muller Hinton broth-cation adjusted, 0.02% BSA, 0.2% acetic acid
How it was run: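 Visual growth inhibition defined the MIC in a microdilution assay where fungal strains were cultured in potato dextrose broth instead of MH broth. Cell density was set to 5.0×10^5 cfu/ml, and incubation lasted 20–24 h at 37° C across a 0.125–128 μg/ml series.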

[14] = tested on: clinical strains of Acinetobacter baumannii; assay: MIC, microdilution, clinical strains; set-up: unit: μg/ml; conditions: 0.02% BSA, 0.2% acetic acid
How it was run: as §2

CC[C@@H](C)[C@@H](NC(=O)[C@@H](CCSC)NC(=O)[C@@H](C)NC(=O)[C@@H](CCCNC(=N)N)NC(=O)[C@@H](Cc1c[nH]c2ccccc12)NC(=O)[C@@H](CCCCN)NC(=O)[C@H](N)CCCNC(=N)N)C(=O)N[C@H](CCCNC(=N)N)C(=O)N[C@H](CC(C)C)C(=O)N[C@H](Cc1c[nH]cn1)C(=O)N[C@H](C)C(=O)N[C@H](CCCCN)C(=O)N[C@H](CCCNC(=N)N)C(=O)N[C@H](CC(C)C)C(=O)N[C@H](CCCNC(=N)N)C(=O)N[C@H](CCCCN)C(=O)O [Chain104D] (H-[dR][dK][dW][dR][dA][dM][dI][dR][dL][dH][dA][dK][dR][dL][dR][dK]-OH)
Minimum inhibitory concentration, Candida albicans strain 1 ([1]; clinical yeast strain 1): 8 | Minimum inhibitory concentration, Candida albicans strain 2 ([1]; clinical yeast strain 2): 8 | Minimum inhibitory concentration, Candida albicans strain 3 ([1]; clinical yeast strain 3): 8 | Minimum inhibitory concentration, Candida albicans strain 4 ([1]; clinical yeast strain 4): 8 | Minimum inhibitory concentration, Candida albicans strain 5 ([1]; clinical yeast strain 5): 8 | Minimum inhibitory concentration, C. glabrata strain 1 ([2]; clinical yeast strain 1): 8 | Minimum inhibitory concentration, C. glabrata strain 2 ([2]; clinical yeast strain 2): 8 | Minimum inhibitory concentration, C. glabrata strain 3 ([2]; clinical yeast strain 3): 8 | Minimum inhibitory concentration, C. glabrata strain 4 ([2]; clinical yeast strain 4): 16 | Minimum inhibitory concentration, C. parapsilosis strain 1 ([3]; clinical yeast strain 1): 4 | Minimum inhibitory concentration, C. parapsilosis strain 2 ([3]; clinical yeast strain 2): 4 | Minimum inhibitory concentration, C. parapsilosis strain 3 ([3]; clinical yeast strain 3): 4 | Minimum inhibitory concentration, C. parapsilosis strain 4 ([3]; clinical yeast strain 4): 2 | Minimum inhibitory concentration, C. quillermondiae strain 1 [4]: 4 | Minimum inhibitory concentration ([5]; Staphylococcus aureus strain 1, Muller Hinton broth-cation adjusted): 4 | Minimum inhibitory concentration ([5]; Staphylococcus aureus strain 2, Muller Hinton broth-cation adjusted): 2 | Minimum inhibitory concentration ([5]; Staphylococcus aureus strain 3, Muller Hinton broth-cation adjusted): 4 | Minimum inhibitory concentration ([5]; Staphylococcus aureus strain 4, Muller Hinton broth-cation adjusted): 2 | Minimum inhibitory concentration ([5]; Staphylococcus aureus strain 5, Muller Hinton broth-cation adjusted): 4 | Minimum inhibitory concentration ([6]; Proteus mirabilis strain 1, Muller Hinton broth-cation adjusted): >128 | Minimum inhibitory concentration ([6]; Proteus mirabilis strain 2, Muller Hinton broth-cation adjusted): 32 | Minimum inhibitory concentration ([6]; Proteus mirabilis strain 3, Muller Hinton broth-cation adjusted): 128 | Minimum inhibitory concentration ([6]; Proteus mirabilis strain 4, Muller Hinton broth-cation adjusted): >128 | Minimum inhibitory concentration ([6]; Proteus mirabilis strain 5, Muller Hinton broth-cation adjusted): >128 | Minimum inhibitory concentration ([7]; Streptococcus pneumoniae strain 1, Muller Hinton broth-cation adjusted): 4 | Minimum inhibitory concentration ([7]; Streptococcus pneumoniae strain 2, Muller Hinton broth-cation adjusted): 2 | Minimum inhibitory concentration ([7]; Streptococcus pneumoniae strain 3, Muller Hinton broth-cation adjusted): 1 | Minimum inhibitory concentration ([7]; Streptococcus pneumoniae strain 4, Muller Hinton broth-cation adjusted): 4 | Minimum inhibitory concentration ([7]; Streptococcus pneumoniae strain 5, Muller Hinton broth-cation adjusted): 1 | Minimum inhibitory concentration ([8]; Klebsiella pneumoniae strain 1, Muller Hinton broth-cation adjusted): 8 | Minimum inhibitory concentration ([8]; Klebsiella pneumoniae strain 2, Muller Hinton broth-cation adjusted): 4 | Minimum inhibitory concentration ([8]; Klebsiella pneumoniae strain 3, Muller Hinton broth-cation adjusted): 8 | Minimum inhibitory concentration ([8]; Klebsiella pneumoniae strain 4, Muller Hinton broth-cation adjusted): 16 | Minimum inhibitory concentration ([8]; Klebsiella pneumoniae strain 5, Muller Hinton broth-cation adjusted): 4 | Minimum inhibitory concentration ([9]; Serratia marcescens strain 1, Muller Hinton broth-cation adjusted): >128 | Minimum inhibitory concentration ([9]; Serratia marcescens strain 2, Muller Hinton broth-cation adjusted): >128 | Minimum inhibitory concentration ([9]; Serratia marcescens strain 3, Muller Hinton broth-cation adjusted): >128 | Minimum inhibitory concentration ([9]; Serratia marcescens strain 4, Muller Hinton broth-cation adjusted): >128 | Minimum inhibitory concentration ([9]; Serratia marcescens strain 5, Muller Hinton broth-cation adjusted): 128 | Minimum inhibitory concentration ([10]; Pseudomonas aeruginosa strain 1, Muller Hinton broth-cation adjusted): 4 | Minimum inhibitory concentration ([10]; Pseudomonas aeruginosa strain 2, Muller Hinton broth-cation adjusted): 2 | Minimum inhibitory concentration ([10]; Pseudomonas aeruginosa strain 3, Muller Hinton broth-cation adjusted): 4 | Minimum inhibitory concentration ([10]; Pseudomonas aeruginosa strain 4, Muller Hinton broth-cation adjusted): 2 | Minimum inhibitory concentration ([10]; Pseudomonas aeruginosa strain 5, Muller Hinton broth-cation adjusted): 1 | Minimum inhibitory concentration ([11]; Enterobacter cloacae strain 1, Muller Hinton broth-cation adjusted): 4 | Minimum inhibitory concentration ([11]; Enterobacter cloacae strain 2, Muller Hinton broth-cation adjusted): 4 | Minimum inhibitory concentration ([11]; Enterobacter cloacae strain 3, Muller Hinton broth-cation adjusted): 8 | Minimum inhibitory concentration ([11]; Enterobacter cloacae strain 4, Muller Hinton broth-cation adjusted): 4 | Minimum inhibitory concentration ([11]; Enterobacter cloacae strain 5, Muller Hinton broth-cation adjusted): 2 | Minimum inhibitory concentration ([12]; Escherichia coli strain 1): 4 | Minimum inhibitory concentration ([12]; Escherichia coli strain 2): 4 | Minimum inhibitory concentration ([12]; Escherichia coli strain 3): 4 | Minimum inhibitory concentration ([12]; Escherichia coli strain 4): 4 | Minimum inhibitory concentration ([12]; Escherichia coli strain 5): 4 | Minimum inhibitory concentration [13]: 8 | Minimum inhibitory concentration ([14]; Acinetobacter baumannii strain 1, Muller Hinton broth-cation adjusted): 16 | Minimum inhibitory concentration ([14]; Acinetobacter baumannii strain 2, Muller Hinton broth-cation adjusted): 8 | Minimum inhibitory concentration ([14]; Acinetobacter baumannii strain 3, Muller Hinton broth-cation adjusted): 8 | Minimum inhibitory concentration ([14]; Acinetobacter baumannii strain 4, Muller Hinton broth-cation adjusted): 4 | Minimum inhibitory concentration ([14]; Acinetobacter baumannii strain 5, Muller Hinton broth-cation adjusted): 8
